Experimental data taken from PMC12582325 (Proceedings of the National Academy of Sciences of the …, 2025).
Several values for one entry are separate records, joined by “and”; a condition that tells them apart may be missing. Equal entries are not always repeated. Entries after “also recorded” stand apart in the source; their conditions may differ. Where two headings read alike, the source gives them in different places. Where a SMILES comes first, the peptide text is derived from it.

Key:
Fg.Ste2 [1] = format: cell-based, Fusarium graminearum; conditions: 10 μM; Control mean 6548; mean of n = 4
Bb.Ste2 [2] = format: cell-based, Beauveria bassiana; conditions: Bb + Cm (Bb 0.0005 μM, Cm 10 μM); Control mean 6960; mean of n = 4
Bb.Ste2 [3] = format: cell-based, Beauveria bassiana
Bc.Ste2 [4] = format: cell-based, Botrytis cinerea
Fo.Ste2 [5] = assay: Yeast GPCR biosensor, cognate agonist together with candidate antagonist Cm; format: cell-based, Fusarium oxysporum; conditions: Fo + Cm (Fo 0.5 μM, Cm 10 μM); Control mean 6141; mean of n = 4
Bb.Ste2 [6] = format: cell-based, Beauveria bassiana; remark: listed apart in the source
Fo.Ste2 [7] = assay: YeMaP Library-on-One: YPL1 pheromone library enrichment by mating, NGS; format: cell-based, Fusarium oxysporum; conditions: YPL1 library cocultured with Fo.Ste2 strain GEN90, 20 h, 2 d diploid enrichment, NextSeq 500
Fg.Ste2 [8] = format: cell-based, Fusarium graminearum; conditions: Fg + Cm (Fg 0.5 μM, Cm 10 μM); Control mean 6548; mean of n = 4
Fg.Ste2 [9] = test system: Fg.Ste2
Hj.Hpr2 = format: cell-based, Hypocrea jecorina
Bc.Ste2 [10] = format: cell-based, Botrytis cinerea; conditions: 10 μM
Bb.Ste2 [11] = format: cell-based, Beauveria bassiana; conditions: YPL1 library cocultured with Bb.Ste2 strain GEN88, 20 h, 2 d diploid enrichment, NextSeq 500
[12] = test system: no_GPCR (negative control lacking a GPCR); format: cell-based, Saccharomyces cerevisiae; conditions: SC + added peptide, individual replicates (n=3)
Bc.Ste2 [13] = format: cell-based, Botrytis cinerea; conditions: YPL1 library cocultured with Bc.Ste2 strain GEN89, 20 h, 2 d diploid enrichment, NextSeq 500
Bc.Ste2 [14] = format: cell-based, Botrytis cinerea; conditions: for Bc.Ste2 (activation): with Bc agonist, normalised
Fg.Ste2 [15] = format: cell-based, Fusarium graminearum; conditions: YPL1 library cocultured with Fg.Ste2 strain GEN87, 20 h, 2 d diploid enrichment, NextSeq 500
Fo.Ste2 [16] = format: cell-based, Fusarium oxysporum
Fo.Ste2 [17] = format: cell-based, Fusarium oxysporum; remark: listed apart in the source

CC(C)C[C@H](NC(=O)[C@H](CS)NC(=O)[C@@H](N)Cc1c[nH]c2ccccc12)C(=O)N[C@@H](CCCNC(=N)N)C(=O)N1CCC[C@H]1C(=O)NCC(=O)N[C@@H](CCC(N)=O)C(=O)N1CCC[C@H]1C(=O)N[C@@H](CS)C(=O)N[C@@H](Cc1c[nH]c2ccccc12)C(=O)O [Cm] (H-WCLRPGQPCW-OH; N-terminus and C-terminus assumed)
Sup.Fig.3B Fg.Ste2 biosensor response, group mean (Fg.Ste2 [1]): 14826 | Sup.Fig.3B Bb.Ste2 biosensor response, group mean (Bb.Ste2 [2]): 1335000 | Mean 2 (SC + peptide), Bb share of diploids (Bb.Ste2 [3]): 0.01767 | barcode qPCR of diploids, Bb.Ste2 x Fo.Pheromone (Bb.Ste2 [3]): 0.04 and 0.041 and 0.037 | barcode qPCR of diploids, Bb.Ste2 x no_Pheromone (Bb.Ste2 [3]): 0.037 and 0.028 and 0.049 | Mean Diff, SC vs. + peptide (Bb.Ste2 [3]; n = 3): 0.02891 | Reduction in diploid formation (Bc.Ste2 [4]): two-fold reduction | Sup.Fig.3B Fo.Ste2 biosensor response, group mean (Fo.Ste2 [5]): 1377500 | Activation of Bb.Ste2 biosensor, in words (Bb.Ste2 [6]): triggered the activation | Sup.Fig.3B Bb.Ste2 biosensor response, group mean (Bb.Ste2 [6]; 10 μM): 1237500 | Enrichment after mating, reads per million minus library before coculture (Fo.Ste2 [7]): consistently lacking | Sup.Fig.3B Fg.Ste2 biosensor response, group mean (Fg.Ste2 [8]): 219822 | barcode qPCR of diploids, Fg.Ste2 x Hj.Pheromone (Fg.Ste2 [9]; SC + added peptide, individual replicates (n=3), SC alone: 0.003, 0.004, 0.001): 0.028 and 0.017 and 0.029 | barcode qPCR of diploids, Fg.Ste2 x Fo.Pheromone (Fg.Ste2 [9]; SC + added peptide, individual replicates (n=3), SC alone: 0.005, 0.005, 0.013): 0.014 and 0.066 and 0.033 | barcode qPCR of diploids, Fg.Ste2 x no_Pheromone (Fg.Ste2 [9]; SC + added peptide, individual replicates (n=3), SC alone: 0.012, 0.001, 0.003): 0 and 0.143 and 0.133 | barcode qPCR of diploids, Fg.Ste2 x Bb.Pheromone (Fg.Ste2 [9]; SC + added peptide, individual replicates (n=3), SC alone: 0.012, 0.009, 0.006): 0.032 and 0.042 and 0.028 | barcode qPCR of diploids, Fg.Ste2 x Fg.Pheromone (Fg.Ste2 [9]; SC + added peptide, individual replicates (n=3), SC alone: 0.206, 0.237, 0.235): 0.441 and 0.282 and 0.373 | Fold increase in diploids containing Fg.Ste2 (Fg.Ste2 [9]; consortium in SC media, 10 μM external peptide, three biological replicates): 2.2 fold | Mean 2 (SC + peptide), Hj share of diploids (Hj.Hpr2): 0.004151 | barcode qPCR of diploids, Hj.HPR2 x Bb.Pheromone (Hj.Hpr2): 0 | barcode qPCR of diploids, Hj.HPR2 x Fg.Pheromone (Hj.Hpr2): 0 | barcode qPCR of diploids, Hj.HPR2 x no_Pheromone (Hj.Hpr2): 0 | Mean Diff, SC vs. + peptide (Hj.Hpr2; n = 3): -0.002114 | Sup.Fig.3B Bc.Ste2 biosensor response, group mean (Bc.Ste2 [10]): 6819 | Enrichment after mating, reads per million minus library before coculture (Bb.Ste2 [11]): +7,508 RPM | barcode qPCR of diploids, no_GPCR x Fg.Pheromone ([12]; SC alone: 0, 0, 0): 0 and 0.032 and 0.007 | barcode qPCR of diploids, no_GPCR x Hj.Pheromone ([12]; SC alone: 0, 0, 0): 0 (2×) and 0.052 | barcode qPCR of diploids, no_GPCR x Bb.Pheromone ([12]; SC alone: 0, 0, 0.004): 0 (2×) and 0.005 | barcode qPCR of diploids, no_GPCR x Fo.Pheromone ([12]; SC alone: 0, 0, 0.007): 0.005 and 0 (2×) | barcode qPCR of diploids, no_GPCR x no_Pheromone ([12]; SC alone: 0.001, 0.001, 0): 0.027 and 0.026 and 0.002 | Enrichment after mating, reads per million minus library before coculture (Bc.Ste2 [13]): consistently lacking | Effect on activation of Bc.Ste2 by Bc pheromone, in words (Bc.Ste2 [14]; 0.0005 μM Bc pheromone in combination with 10 μM peptide, four biological replicates, Fig. 2G): completely abolished | Sup.Fig.3B Bc.Ste2 biosensor response, group mean (Bc.Ste2 [14]; Bc + Cm (Bc 0.0005 μM, Cm 10 μM), Control mean 6719, mean of n = 4): 9961 | Bc.Ste2 + pheromones, biosensor response, group mean (Bc.Ste2 [14]; Bc + the named peptide, Bc alone mean 134.8, mean of n = 4): 1.794 | Hillslope (Bc.Ste2 [14]; Bc.Ste2 + Cm (antagonist), four-parameter fit, best-fit value): -289008 | Excess of the antagonist compared to the agonist at IC50 (Bc.Ste2 [14]; Bc.Ste2, 0.0005 μM Bc pheromone): 2,000 fold | Bc.Ste2 (activation) (Bc.Ste2 [14]; Concentration 1e-6, replicate 1): 49.9332 | Bc.Ste2 (activation) (Bc.Ste2 [14]; Concentration 1e-6, replicate 2): 46.5053 | Bc.Ste2 (activation) (Bc.Ste2 [14]; Concentration 1e-6, replicate 3): 51.6445 | Bc.Ste2 (activation) (Bc.Ste2 [14]; Concentration 1e-6, replicate 4): 48.6418 | Bc.Ste2 (activation) (Bc.Ste2 [14]; Concentration 5e-6, replicate 1): 5.491 | Bc.Ste2 (activation) (Bc.Ste2 [14]; Concentration 5e-6, replicate 2): 4.729 | Bc.Ste2 (activation) (Bc.Ste2 [14]; Concentration 5e-6, replicate 3): 4.1657 | Bc.Ste2 (activation) (Bc.Ste2 [14]; Concentration 5e-6, replicate 4): 2.595 | Bc.Ste2 (activation) (Bc.Ste2 [14]; Concentration 1e-5, replicate 1): 1.904 | Bc.Ste2 (activation) (Bc.Ste2 [14]; Concentration 1e-5, replicate 2): 1.546 | Bc.Ste2 (activation) (Bc.Ste2 [14]; Concentration 1e-5, replicate 3): 1.924 | Bc.Ste2 (activation) (Bc.Ste2 [14]; Concentration 1e-5, replicate 4): 1.801 | Bc.Ste2 (activation) (Bc.Ste2 [14]; Concentration 1.00E-07, replicate 1): 86.3218 | Bc.Ste2 (activation) (Bc.Ste2 [14]; Concentration 1.00E-07, replicate 2): 95.1098 | Bc.Ste2 (activation) (Bc.Ste2 [14]; Concentration 1.00E-07, replicate 3): 89.2984 | Bc.Ste2 (activation) (Bc.Ste2 [14]; Concentration 1.00E-07, replicate 4): 97.6612 | Bc.Ste2 (activation) (Bc.Ste2 [14]; Concentration 1.00E-08, replicate 1): 96.9525 | Bc.Ste2 (activation) (Bc.Ste2 [14]; Concentration 1.00E-08, replicate 2): 96.5273 | Bc.Ste2 (activation) (Bc.Ste2 [14]; Concentration 1.00E-08, replicate 3): 99.5039 | Bc.Ste2 (activation) (Bc.Ste2 [14]; Concentration 1.00E-08, replicate 4): 98.7952 | Bc.Ste2 (activation) (Bc.Ste2 [14]; Concentration 1.00E-09, replicate 1): 101.063 | Bc.Ste2 (activation) (Bc.Ste2 [14]; Concentration 1.00E-09, replicate 2): 96.9525 | Bc.Ste2 (activation) (Bc.Ste2 [14]; Concentration 1.00E-09, replicate 3): 99.9291 | Bc.Ste2 (activation) (Bc.Ste2 [14]; Concentration 1.00E-09, replicate 4): 101.063 | Bc.Ste2 (activation) (Bc.Ste2 [14]; Concentration 5.00E-07, replicate 1): 78.8094 | Bc.Ste2 (activation) (Bc.Ste2 [14]; Concentration 5.00E-07, replicate 2): 64.2098 | Bc.Ste2 (activation) (Bc.Ste2 [14]; Concentration 5.00E-07, replicate 3): 79.0928 | Bc.Ste2 (activation) (Bc.Ste2 [14]; Concentration 5.00E-07, replicate 4): 82.7782 | Bc.Ste2 (activation) (Bc.Ste2 [14]; Concentration 5.00E-08, replicate 1): 94.4011 | Bc.Ste2 (activation) (Bc.Ste2 [14]; Concentration 5.00E-08, replicate 2): 98.7952 | Bc.Ste2 (activation) (Bc.Ste2 [14]; Concentration 5.00E-08, replicate 3): 96.9525 | Bc.Ste2 (activation) (Bc.Ste2 [14]; Concentration 5.00E-08, replicate 4): 98.7952 | Enrichment after mating, reads per million minus library before coculture (Fg.Ste2 [15]): consistently lacking | Fold decline in diploids containing Fo.Ste2 (Fo.Ste2 [16]): 0.2 fold | Mean 2 (SC + peptide), Fo share of diploids (Fo.Ste2 [16]): 0.087 | Mean Diff, SC vs. + peptide (Fo.Ste2 [16]; n = 3): 0.4046 | Activation of Fo.Ste2 biosensor, in words (Fo.Ste2 [17]): triggered the activation; also recorded: agonists for Fo.Ste2 | Hillslope (Fo.Ste2 [17]): 1.276 | logEC50 (Fo.Ste2 [17]): -6.973 | Sup.Fig.3B Fo.Ste2 biosensor response, group mean (Fo.Ste2 [17]; 10 μM): 1362500
